Biological target: T1, glucocerebrosidase (Gcase) (Homo sapiens, UniProt P04062)
T1 sequence (P04062 40-536): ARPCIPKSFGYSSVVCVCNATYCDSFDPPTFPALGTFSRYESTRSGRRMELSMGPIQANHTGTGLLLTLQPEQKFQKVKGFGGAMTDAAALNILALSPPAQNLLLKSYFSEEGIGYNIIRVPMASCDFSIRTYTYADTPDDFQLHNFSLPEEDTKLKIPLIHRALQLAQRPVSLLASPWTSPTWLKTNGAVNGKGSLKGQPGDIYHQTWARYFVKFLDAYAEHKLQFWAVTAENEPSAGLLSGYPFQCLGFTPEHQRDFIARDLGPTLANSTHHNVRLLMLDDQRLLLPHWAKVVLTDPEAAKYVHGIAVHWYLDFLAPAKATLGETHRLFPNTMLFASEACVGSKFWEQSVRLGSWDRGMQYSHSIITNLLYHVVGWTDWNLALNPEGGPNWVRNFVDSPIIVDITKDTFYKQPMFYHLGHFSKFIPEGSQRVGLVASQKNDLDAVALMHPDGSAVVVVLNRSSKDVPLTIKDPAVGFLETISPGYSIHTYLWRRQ
Test: Glucocerebrosidase (Gcase) activation assay, 4-methylumbelliferyl-beta-D-glucopyranoside substrate, fluorescence
Format: biochemical
Settings: 10 nM GCase, 100 nM saposin C; for activation at 0.1 µM / activation at 1 µM: 0.25 h; for activation at 0.1 µM: pH 4.7, test compound at 0.1 μM, read-out: Percent Gcase Activation 0.1 μM Test Compound; for activation at 1 µM: pH 4.7, test compound at 1.0 μM, read-out: Percent Gcase Activation 1 μM Test Compound; for Percent Gcase Activation 0.1 μM Test Compound: test compound at 0.1 μM; for Percent Gcase Activation 0.1 μM Test Compound / Percent Gcase Activation 1 μM Test Compound: pH 4.7; for Percent Gcase Activation 1 μM Test Compound: test compound at 1.0 μM
Procedure: The ability of exemplary compounds to activate glucocerebrosidase (Gcase) was measured.
A 484 μL aliquot of a 1.0 mg/mL solution of phosphatidylserine (PS) (Sigma P7769) in chloroform was evaporated under a stream of nitrogen for 1 hour. The lipid film was dissolved over 4 minutes of vigorous vortexing in 40 mL of 176 mM K2HPO4/50 mM citric acid (pH 4.7) containing 7.5 μL of triton X-100, resulting in a mixed micellar preparation with a composition of 0.32 mM triton and 0.37 mol % PS. 4-Methylumbelliferyl-beta-D-glucopyranoside (ACROS-337025000) was dissolved in the micellar solution to a final concentration of 2 mM for use as the reaction substrate.
Test compounds were diluted to the desired concentrations with dimethylsulfoxide (DMSO) from 10 mM stocks, and 0.41 μL of the DMSO compound mixture was added to 100 μL of micellar solution containing 10 nM GCase and 100 nM saposin C (Enzo ALX-201-262-C050). Pre-incubation was allowed to occur for 30 minutes at room temperature, after which the reaction was initiated by combining 25 μL of substrate solution with 25 μL of compound/GCase/saposin mixture. The reaction proceeded for 15 minutes at room temperature and was stopped by adding 150 μL of 1M glycine, pH 12.5. The endpoint of the reaction was monitored by measuring fluorescence intensity (excitation: 365 nm; emission: 440 nm) on a SpectraMax i3 instrument (Molecular Devices). Test compounds were screened at 1.0 and 0.1 μM final concentration, and subsequent 8-point dose response curves were obtained using 3-fold dilutions from a maximum final concentration of 5 μM.
For experiments in which the test compound was used at a concentration of 1.0 μM, the symbol “+” indicates less than 30% Gcase activation; the symbol “++” indicates Gcase activation in the range of 30% up to 60%; and the symbol “+++” indicates Gcase activation greater than 60%. For experiments in which the test compound was used at a concentration of 0.1 μM, the symbol “*” indicates less than 10% Gcase activation; the symbol “**” indicates Gcase activation in the range of 10% up to 20%; and the symbol “***” indicates greater than 20% Gcase activation.

| Structure (SMILES) | activation at 0.1 µM [%] | activation at 1 µM [%] | Percent Gcase Activation 0.1 μM Test Compound | Percent Gcase Activation 1 μM Test Compound |
| --- | --- | --- | --- | --- |
| COCc1cc(C(F)F)n2ccc(C(=O)NC3(c4cc(F)cc(F)c4)CC3)c2n1 [III-9] | < 10 | < 30 | – | – |
| CCCCO[C@H]1CC[C@H](NC(=O)c2ccn3c(C)cc(C4CCOCC4)nc23)CC1 [III-32] | < 10 | 30 to 60 | – | – |
| Cc1cc(-c2ncccn2)nc2c(C(=O)NC(C)(C)C3CC3)ccn12 [III-43] | 10 to 20 | > 60 | – | – |
| Cc1cn2ccc(C(=O)NC(C)(C)C3CC3)c2nc1-c1ccc(F)cc1 [III-50] | < 10 | > 60 | – | – |
| COCC(NC(=O)c1ccn2c(C)cc(C)nc12)C1CC1 (stereo not shown) [III-66] | < 10 | < 30 | – | – |
| Cc1cc(C)n2ccc(C(=O)NC(C)C3CCCCC3)c2n1 (stereo not shown) [III-67] | – | – | *** (greater than 20% Gcase activation) | +++ (Gcase activation greater than 60%) |
| COCC(C)(NC(=O)c1ccn2c(C)cc(C)nc12)c1ccccc1 (stereo not shown) [III-68] | < 10 | > 60 | – | – |
| Cc1cc(C)n2ccc(C(=O)NC(C)C3CCCC3)c2n1 (stereo not shown) [III-69] | 10 to 20 | > 60 | – | – |
| Cc1cc(C)n2ccc(C(=O)NC(CO)C34CC5CC(CC(C5)C3)C4)c2n1 (stereo not shown) [IV-34] | < 10 | 30 to 60 | – | – |
| Cc1cc(C)n2ccc(C(=O)NC(C)C3COc4ccccc4O3)c2n1 (stereo not shown) [IV-36] | – | – | * (less than 10% Gcase activation) | + (less than 30% Gcase activation) |
| Cc1cc(C)n2ccc(C(=O)N[C@@H](C)c3nc4ccccc4n3C)c2n1 [IV-37] | < 10 | < 30 | – | – |
| Cc1cc(C)n2ccc(C(=O)NC(C)c3ccc(-c4cccnc4)cc3)c2n1 (stereo not shown) [IV-43] | < 10 | 30 to 60 | – | – |
| CCC(NC(=O)c1ccn2c(C)cc(C)nc12)c1ncccc1C (stereo not shown) [IV-57] | < 10 | < 30 | – | – |
| COc1ccccc1C(C)NC(=O)c1ccn2c(C)cc(C)nc12 (stereo not shown) [IV-60] | > 20 | > 60 | – | – |
| Cc1cc(C)n2ccc(C(=O)NC(C)c3ccccc3C)c2n1 (stereo not shown) [IV-63] | > 20 | > 60 | – | – |
| Cc1cc(C)n2ccc(C(=O)NC(C)c3ncc(-c4ccccc4)o3)c2n1 (stereo not shown) [IV-65] | 10 to 20 | > 60 | – | – |
| Cc1cc(C)n2ccc(C(=O)NC(C)c3ccccc3-n3cccn3)c2n1 (stereo not shown) [IV-67] | < 10 | 30 to 60 | – | – |
| Cc1cc(C)n2ccc(C(=O)NC(C)c3ccc(-n4cccn4)cc3)c2n1 (stereo not shown) [IV-68] | 10 to 20 | > 60 | – | – |
| Cc1cc(C)n2ccc(C(=O)NC(C)c3nc(C4CCCCC4)no3)c2n1 (stereo not shown) [IV-69] | 10 to 20 | > 60 | – | – |
| Cc1cc(C)n2ccc(C(=O)NC(C)c3ccccc3-c3ccccc3)c2n1 (stereo not shown) [IV-70] | < 10 | > 60 | – | – |
| CCC(NC(=O)c1ccn2c(C)cc(C)nc12)C12CC3CC(C1)C(C3)C2 (stereo not shown) [IV-72] | > 20 | > 60 | – | – |
| COc1ccc(F)cc1C(C)NC(=O)c1ccn2c(C)cc(C)nc12 (stereo not shown) [IV-74] | > 20 | > 60 | – | – |
| Cc1cc(C)n2ccc(C(=O)NC(C)c3cccc(-n4cccn4)c3)c2n1 (stereo not shown) [IV-75] | 10 to 20 | > 60 | – | – |
| Cc1cc(C)n2ccc(C(=O)NC(C)c3nnn(C4CC4)n3)c2n1 (stereo not shown) [IV-76] | < 10 | < 30 | – | – |
| Cc1cc(C)n2ccc(C(=O)NC(C)c3ccc(-c4ccccc4)cc3)c2n1 (stereo not shown) [IV-77] | > 20 | > 60 | – | – |
| Cc1cc(C)n2ccc(C(=O)NC(C)c3nnn(-c4ccccc4)n3)c2n1 (stereo not shown) [IV-80] | < 10 | < 30 | – | – |
| Cc1cc(C)n2ccc(C(=O)NC(Cc3ccccc3)c3ccccc3)c2n1 (stereo not shown) [IV-81] | > 20 | > 60 | – | – |

| Structure (SMILES) | activation at 0.1 µM [%] | activation at 1 µM [%] | Percent Gcase Activation 0.1 μM Test Compound | Percent Gcase Activation 1 μM Test Compound |
| --- | --- | --- | --- | --- |
| Cc1cc(C)n2ccc(C(=O)NC(C)C3COc4ccccc4O3)c2n1 (stereo not shown) [IV-82] | < 10 | – | – | +++ (Gcase activation greater than 60%) |
| CCC(NC(=O)c1ccn2c(C)cc(C)nc12)c1ccc(OC)cc1 (stereo not shown) [IV-83] | > 20 | > 60 | – | – |
| Cc1cc(C)n2ccc(C(=O)N[C@H](C)c3ccc4c(c3)OCO4)c2n1 [IV-84] | 10 to 20 | > 60 | – | – |
| Cc1cc(C)n2ccc(C(=O)NC(C)c3nc4ccccc4n3C)c2n1 (stereo not shown) [IV-85] | < 10 | < 30 | – | – |
| CCC(NC(=O)c1ccn2c(C)cc(C)nc12)c1nc2ccccc2[nH]1 (stereo not shown) [IV-86] | < 10 | < 30 | – | – |
| Cc1cc(C)n2ccc(C(=O)NC(C)C3Oc4ccccc4C3C)c2n1 (stereo not shown) [IV-87] | 10 to 20 | > 60 | – | – |
| CCOc1ccc(C(C)NC(=O)c2ccn3c(C)cc(C)nc23)cc1 (stereo not shown) [IV-88] | > 20 | > 60 | – | – |
| Cc1cc(C)n2ccc(C(=O)NC(C)C34CC5CC(C3)C(C5)C4)c2n1 (stereo not shown) [IV-89] | > 20 | > 60 | – | – |
| Cc1cc(C)n2ccc(C(=O)NC(CO)c3ccc4ccccc4c3)c2n1 (stereo not shown) [IV-90] | < 10 | < 30 | – | – |
| Cc1ccc(C(CO)NC(=O)c2ccn3c(C)cc(C)nc23)c(C)c1 (stereo not shown) [IV-91] | < 10 | < 30 | – | – |
| Cc1cc(C)n2ccc(C(=O)NC(CO)c3cccc(C)c3C)c2n1 (stereo not shown) [IV-92] | < 10 | < 30 | – | – |
| Cc1cc(C)n2ccc(C(=O)NC(CO)c3ccc(C(C)C)cc3)c2n1 (stereo not shown) [IV-93] | < 10 | < 30 | – | – |
| Cc1cc(C)n2ccc(C(=O)NC(CO)c3cccc4ccccc34)c2n1 (stereo not shown) [IV-94] | < 10 | 30 to 60 | – | – |
| Cc1cc(C)n2ccc(C(=O)N[C@H](C)c3cccc4c3CCCC4)c2n1 [IV-95] | 10 to 20 | > 60 | – | – |
| Cc1cc(C)n2ccc(C(=O)NC(C)(C)c3cccc(Cl)c3)c2n1 [IV-96] | > 20 | > 60 | – | – |
| Cc1cc(C)n2ccc(C(=O)N[C@H](C)c3ccc(F)cc3)c2n1 [IV-97] | 10 to 20 | > 60 | – | – |
| CCC(=O)Nc1ccc(C(C)NC(=O)c2ccn3c(C)cc(C)nc23)cc1 (stereo not shown) [IV-98] | > 20 | > 60 | – | – |
| Cc1cc(C)n2ccc(C(=O)N[C@@H](C)c3cccc4c3CCCC4)c2n1 [IV-99] | > 20 | > 60 | – | – |
| CCc1ccc([C@@H](C)NC(=O)c2ccn3c(C)cc(C)nc23)cc1 [IV-100] | 10 to 20 | > 60 | – | – |
| CCC(CO)(NC(=O)c1ccn2c(C)cc(C)nc12)c1ccccc1 (stereo not shown) [IV-101] | < 10 | 30 to 60 | – | – |
| Cc1cc(C)n2ccc(C(=O)NC(C)c3cccc(N4CCCC4)c3)c2n1 (stereo not shown) [IV-102] | < 10 | > 60 | – | – |
| Cc1cc(C)n2ccc(C(=O)NC(C)(C)c3ccc(F)cc3)c2n1 [IV-103] | > 20 | > 60 | – | – |
| Cc1cc(C)n2ccc(C(=O)NC(C)c3ccc(C)c(F)c3)c2n1 (stereo not shown) [IV-104] | > 20 | > 60 | – | – |
| CCC(NC(=O)c1ccn2c(C)cc(C)nc12)c1cccc(Cl)c1 (stereo not shown) [IV-105] | > 20 | > 60 | – | – |
| CCn1c(C(C)NC(=O)c2ccn3c(C)cc(C)nc23)nc2c1CCCC2 (stereo not shown) [IV-106] | < 10 | < 30 | – | – |
| Cc1cc(C)n2ccc(C(=O)NC(C)c3ccc(F)c(C)c3)c2n1 (stereo not shown) [IV-107] | 10 to 20 | > 60 | – | – |
